Measured values published in article PMC7904550, “Application of grouping and read-across for the evaluation of parabens of different chain lengths with a particular focus on endocrine properties” (Archives of Toxicology, 2021).
Like-named read-outs stand apart in the source and are kept apart here. Marks after values point to notes of the source that are not given here.

Assays:
[1] = Octanol–water partition coefficient (Log Kow); assay type: physicochemical; settings: mean; OECD TG 107 and OECD TG 117
Description: Generally, these parabens have very similar physico-chemical properties.

in vivo = settings: for concentration at 1 h / Tmax / AUC(0-t) / Cmax: Wistar, rat; for Tmax / AUC(0-t) / Cmax: po; for AUC(0-t) / Cmax / AUC0-1 h/AUC0–t / C1h/Cmax / Clast / tlast: parent compound
Procedure: These studies were conducted similarly to OECD TG 417 applying 500 and 1000 mg/kg body weight (bw) test item via oral gavage to 10 males and 10 females per dose group. Focus of the toxicokinetic evaluation was on the measurement of the serum concentrations of the parent compounds and their (common) major metabolite p-hydroxybenzoic acid by […] in order to assess the systemic uptake and elimination of the parent compounds and this major metabolite [see also ECHA ([2017a])]. The limit of quantification was determined as 10 ng/mL for all parabens, and as 130 ng/mL for p-hydroxybenzoic acid. […] On account of these major aims, investigations of the faeces and urine were not included in the toxicokinetics screening studies.

[2] = Grouping and read-across of NOAEL (ECHA RAAF Scenario 5; analogue approach)
Description: The strength of evidence for the respective AEs was scored by the assessment options indicated in the RAAF ranging from Score 5 (acceptable with high confidence) to Score 1 (not acceptable) (ECHA [2017b]).

rats [3] = settings: acute oral, ref ECHA dissemination portal, cited from earlier work
rats [4] = settings: cited from earlier work
rats [5] = settings: cited from earlier work; remark: listed apart in the source
rats [6] = settings: cited from earlier work; remark: listed apart in the source
bacteria = settings: OECD 471, ref ECHA dissemination portal, cited from earlier work
rats [7] = settings: read-across from MP; ref ECHA dissemination portal; cited from earlier work
SD-JCL rats = settings: feeding study, ref Sado 1973, Liebert 1984; cited from earlier work
rats [8] = settings: cited from earlier work; remark: listed apart in the source
[9] = design: method as in Hansch et al. (1995); settings: ref Hansch et al. (1995); cited from earlier work
rabbits = test system: rabbits; design: method as in ECHA dissemination portal; settings: acute dermal exposure, ref ECHA dissemination portal; cited from earlier work
rats [10] = settings: 5,000, 15,000 and 40,000 ppm in feed, ref Hubbard et al. 2020, cited from earlier work
Wistar rats = test system: Wistar rats; design: method as in Zhang et al. 2014; settings: 400 and 1000 mg/kg bw/day oral gavage; ref Zhang et al. 2014; cited from earlier work
male rats = test system: male rats; design: method as in Hoberman et al. 2008; settings: up to 10,000 ppm, corresponding to 1088 ± 68 mg/kg bw/day; ref Hoberman et al. 2008; cited from earlier work
oestrogen receptors = test system: oestrogen receptors; design: method as in Byford et al. 2002; settings: ref Byford et al. 2002; cited from earlier work
[11] = ref Dymicky and Huhtanen (1979), cited in CIR (2008); cited from earlier work
[12] = ref Yalkowsky and He (2003); cited from earlier work
[13] = read-across by interpolation from methyl paraben and propyl paraben

CCOC(=O)c1ccc(O)cc1 [Ethyl paraben, Ethyl 4-hydroxybenzoate]
Log Kow [1]: 2.3 (mean; OECD TG 107 and OECD TG 117) | concentration at 1 h (in vivo; female, serum, oral, 500 mg/kg): 116 ng/mL | concentration at 1 h (in vivo; female, serum, oral, 1000 mg/kg): 305 ng/mL | Tmax (in vivo; female, serum, 500 mg/kg): 4.8 min | AUC(0-t) (in vivo; female, serum, 500 mg/kg, AUC0-1 h): 1080 ng·h/mL | AUC(0-t) (in vivo; female, serum, 500 mg/kg, AUC0–t): 1540 ng·h/mL | Cmax (in vivo; female, serum, 500 mg/kg): 5930 ng/mL | Tmax (in vivo; female, serum, 1000 mg/kg): 10.2 min | AUC(0-t) (in vivo; female, serum, 1000 mg/kg, AUC0-1 h): 1660 ng·h/mL | AUC(0-t) (in vivo; female, serum, 1000 mg/kg, AUC0–t): 3320 ng·h/mL | Cmax (in vivo; female, serum, 1000 mg/kg): 5150 ng/mL | Cmax (in vivo; female, serum, 1000 mg/kg, females): 5000 ng/mL | concentration at 1 h (in vivo; male, serum, oral, 500 mg/kg): 71.6 ng/mL | concentration at 1 h (in vivo; male, serum, oral, 1000 mg/kg): 96.6 ng/mL | Tmax (in vivo; male, serum, 500 mg/kg): 4.8 min | AUC(0-t) (in vivo; male, serum, 500 mg/kg, AUC0-1 h): 320 ng·h/mL | AUC(0-t) (in vivo; male, serum, 500 mg/kg, AUC0–t): 632 ng·h/mL | Cmax (in vivo; male, serum, 500 mg/kg): 1540 ng/mL | Tmax (in vivo; male, serum, 1000 mg/kg): 4.8 min | AUC(0-t) (in vivo; male, serum, 1000 mg/kg, AUC0-1 h): 490 ng·h/mL | AUC(0-t) (in vivo; male, serum, 1000 mg/kg, AUC0–t): 789 ng·h/mL | Cmax (in vivo; male, serum, 1000 mg/kg): 2390 ng/mL | Cmax (in vivo; male, serum, 1000 mg/kg, males): 2000 ng/mL | AUC0-1 h/AUC0–t (in vivo; 500 mg/kg, female): 70% | C1h/Cmax (in vivo; 500 mg/kg, female): 2.0% | Clast (in vivo; 500 mg/kg, female): 23.9 ng/mL | tlast (in vivo; 500 mg/kg, female): 8.0 h | AUC0-1 h/AUC0–t (in vivo; 500 mg/kg, male): 51% | C1h/Cmax (in vivo; 500 mg/kg, male): 4.7% | Clast (in vivo; 500 mg/kg, male): 70.6 ng/mL | tlast (in vivo; 500 mg/kg, male): 8.0 h | AUC0-1 h/AUC0–t (in vivo; 1000 mg/kg, female): 50% | C1h/Cmax (in vivo; 1000 mg/kg, female): 5.9% | Clast (in vivo; 1000 mg/kg, female): 168 ng/mL | tlast (in vivo; 1000 mg/kg, female): 8.0 h | AUC0-1 h/AUC0–t (in vivo; 1000 mg/kg, male): 62% | C1h/Cmax (in vivo; 1000 mg/kg, male): 4.0% | Clast (in vivo; 1000 mg/kg, male): 33.3 ng/mL | tlast (in vivo; 1000 mg/kg, male): 8.0 h | NOAEL for repeated-dose toxicity and DART ([2]; interpolated from methyl paraben and propyl paraben): 1000 mg/kg bw/day | NOAEL, EOGRTS: developmental and reproductive toxicity [2, 13]: NOAEL: 1000 (Read-across by interpolation) mg/kg body weight/day | NOAEL, developmental toxicity (OECD TG 414) [2, 13]: NOAEL: 1000 (Read-across by interpolation) mg/kg body weight/day | NOAEL, reproductive toxicity (OECD TG 421/422) [2, 13]: NOAEL: 1000 (Read-across by interpolation) mg/kg body weight/day | LD50 (rats [3]; rats, OECD 401): > 3100 (OECD 401; 1982) mg/kg bw | Skin irritation/skin corrosion classification (rats [4]; rat, in vivo): Not irritating (OECD 404; 1983) | Eye irritation/eye corrosion classification (rats [5]; rat, in vivo): Not irritating (OECD 405; 1983) | Skin sensitisation classification (rats [6]; rat, in vivo): Not sensitising (equiv. OECD 406; 1981) | Mutagenicity in bacteria classification (bacteria): Not mutagenic [c] (OECD 471; 2012) | Genetic toxicity in vivo (rats) classification (rats [7]): Not clastogenic (read-across from MP) | NOAEL, 25-week repeated dose toxicity (SD-JCL rats): NOAEL: 1200 (25-week repeated dose toxicity [a]) mg/kg body weight/day | NOAEL (rats [8]; ref EFSA 2004): 1000 mg/kg bw/day

CCCCOC(=O)c1ccc(O)cc1 [Butyl paraben, Butyl 4-hydroxybenzoate]
concentration at 1 h (in vivo; female, in vivo, 500 mg/kg): 31.5 ng/mL | concentration at 1 h (in vivo; female, in vivo, 1000 mg/kg): 59.1 ng/mL | Tmax (in vivo; female, in vivo, 500 mg/kg): 4.8 min | AUC(0-t) (in vivo; female, in vivo, 500 mg/kg, AUC0-1 h): 149 ng·h/mL | AUC(0-t) (in vivo; female, in vivo, 500 mg/kg, AUC0–t): 336 ng·h/mL | Cmax (in vivo; female, in vivo, 500 mg/kg): 741 ng/mL | Tmax (in vivo; female, in vivo, 1000 mg/kg): 4.8 min | AUC(0-t) (in vivo; female, in vivo, 1000 mg/kg, AUC0-1 h): 191 ng·h/mL | AUC(0-t) (in vivo; female, in vivo, 1000 mg/kg, AUC0–t): 404 ng·h/mL | Cmax (in vivo; female, in vivo, 1000 mg/kg): 854 ng/mL | concentration at 1 h (in vivo; male, in vivo, 500 mg/kg): 161 ng/mL | concentration at 1 h (in vivo; male, in vivo, 1000 mg/kg): 373 ng/mL | AUC(0-t) (in vivo; male, in vivo, 500 mg/kg, AUC0-1 h): 300 ng·h/mL | AUC(0-t) (in vivo; male, in vivo, 500 mg/kg, AUC0–t): 705 ng·h/mL | Cmax (in vivo; male, in vivo, 500 mg/kg): 1770 ng/mL | AUC(0-t) (in vivo; male, in vivo, 1000 mg/kg, AUC0-1 h): 860 ng·h/mL | AUC(0-t) (in vivo; male, in vivo, 1000 mg/kg, AUC0–t): 1580 ng·h/mL | Cmax (in vivo; male, in vivo, 1000 mg/kg): 6520 ng/mL | Cmax (in vivo; male, in vivo, 1000 mg/kg, males): 7000 ng/mL | AUC0-1 h/AUC0–t (in vivo; 500 mg/kg, female): 44% | C1h/Cmax (in vivo; 500 mg/kg, female): 4.3% | Clast (in vivo; 500 mg/kg, female): 23.9 ng/mL | tlast (in vivo; 500 mg/kg, female): 8.0 h | AUC0-1 h/AUC0–t (in vivo; 500 mg/kg, male): 43% | C1h/Cmax (in vivo; 500 mg/kg, male): 9.1% | Clast (in vivo; 500 mg/kg, male): 49.2 ng/mL | tlast (in vivo; 500 mg/kg, male): 8.0 h | AUC0-1 h/AUC0–t (in vivo; 1000 mg/kg, female): 47% | C1h/Cmax (in vivo; 1000 mg/kg, female): 6.9% | Clast (in vivo; 1000 mg/kg, female): 23.6 ng/mL | tlast (in vivo; 1000 mg/kg, female): 8.0 h | AUC0-1 h/AUC0–t (in vivo; 1000 mg/kg, male): 54% | C1h/Cmax (in vivo; 1000 mg/kg, male): 5.7% | Clast (in vivo; 1000 mg/kg, male): 18.4 ng/mL | tlast (in vivo; 1000 mg/kg, male): 8.0 h | NOAEL for repeated-dose toxicity and DART ([2]; extrapolation, appears justifiable): 1000 mg/kg bw/day | Log Kow [9]: 3.54 [d] | NOAEL (rabbits): [b] A further acute toxicity study was conducted as dermal exposure study in rabbits yielding NOAEL > 2000 mg/kg bw | Adverse alterations of fertility, fecundity, pubertal attainment or any reproductive parameters (rats [10]; parent, first, second generation): no association | Liver findings (rats [10]): exposure-dependent increases in liver weight and incidences of non-neoplastic liver lesions | Epididymal sperm count and daily sperm production (Wistar rats): dose-dependently reduced epididymal sperm count and daily sperm production | Effects in male rats (male rats): no effects | Rank of oestrogen receptor activation among shorter-chained parabens (oestrogen receptors): the most activation | pKa [11]: 8.37 [c] | Water solubility [12]: Insoluble [e] | LD50 (rats [3]; OECD 423, read-across from iso-butyl paraben): > 2000 (read across; OECD 423; 2018) [a, b] mg/kg bw | Skin irritation/skin corrosion classification (rats [4]; read-across from iso-butyl paraben, OECD 439, ref ECHA dissemination portal): Irritating (read-across; OECD 439; 2016) [a] | Eye irritation/eye corrosion classification (rats [5]; read-across from iso-butyl paraben, OECD 437, ref ECHA dissemination portal): Ser. eye damage (read-across; OECD 437; 2016) [a] | Skin sensitisation classification (rats [6]; read-across from iso-butyl paraben, OECD 429, ref ECHA dissemination portal): Not sensitising (read-across; OECD 429; 2016) [a] | Mutagenicity in bacteria classification (bacteria; read-across from iso-butyl paraben): Not mutagenic (read-across; OECD 471; 2016) [a] | NOAEL, point-of-departure (rats [8]; derived from Zhang et al. (2014), ref CIR 2019): 160 mg/kg bw/day | NOEL (rats [8]; juvenile rats, subcutaneous, 17 days (PND 2-18), single dose tested (Fisher et al. 1999), ref SCCS 2010): 2 mg/kg bw/day
